{"source": "patent US10428111B2", "about": "“Cancer targeting by anti-EGFR peptides and applications thereof” (priority 2015, dated 2019)", "key": {"[1]": {"tested_on": "SKBR3 (HER2-overexpressing cells)", "assay": "MTT cytotoxicity study", "type": "cell-based, human", "details": "then 48 hours, mean ± SD, n = 3", "protocol": "(§1) The anti-proliferative effects of liposomal preparations containing DOX were assessed using MTT assay. SK-BR-3, TUBO, and MDA-MB-231 cells were seeded at 7000, 10,000, 2500 cells/well in 96 well plates. After an overnight incubation, the medium was replaced with FCS free medium containing 1:2 serial dilutions of liposomal DOX or free DOX. After 3 hours and 6 hours' incubation times at 37° C., cells were washed with pre-warmed complete culture media and re-incubated further for 48 hours at 37° C. in their complete culture medium. Then, the medium was replaced with 100 μL of freshly prepared MTT (10% v/v, 5 mg/mL) and FCS free culture medium. Finally, after 4 hours of incubation at 37° C., the absorbance at 545 nm was recorded. Relative cell death (R) was calculated as follows: R=1−[(Atest−Ablank)/(Acontrol−Ablank)] Equation (1)\n(§2) In the above Equation (1), Atest is the absorbance values of the cells treated with the test solutions and Acontrol is the absorbance values of the culture medium (negative control). Ablank is the absorbance of MTT solution added in cell free wells. The IC50 was then calculated using CalcuSyn version 2 software (BIOSOFT, UK)."}, "[2]": {"tested_on": "TUBO (HER2-overexpressing cells)", "assay": "MTT cytotoxicity study", "type": "cell-based, mice", "details": "then 48 hours, mean ± SD, n = 3", "protocol": "as §1, §2"}, "[3]": {"assay": "Bio-distribution study (DOX in plasma, tumor and tissues)", "type": "in vivo, BALB/c mice", "details": "15 mg/kg as DOX; after 3 hours", "protocol": "Two weeks after tumor inoculation, when the tumors were approximately 5 mm wide, mice (3 per group) were injected via the tail vain with either 15 mg/kg of doxorubicin as Caelyx® or targeted liposomes. Control mice received 200 μL of dextrose 5%. Blood samples were collected via retro orbital bleeding (approx. 0.5 mL) 3, 6, and 12 hours after the dosing. After 24 hours, the group was sacrificed for tissue collection. Blood samples were collected by heart puncture, and the whole tumor, kidneys, spleen, heart, lungs as well as a portion of liver and muscle were dissected, weighted and placed in a 2 mL Polypropylene Microvials containing 1 mL of acidified isopropanol and zirconia bead sand homogenized by Mini-Beadbeater-1. The blood was allowed to coagulate at 4° C. and then centrifuged for 10 min at 14,000 rpm. Then, serum was collected and an adequate volume was diluted in 1 mL acidified isopropanol. The homogenized tissue samples and the sera were stored overnight at 4° C. to extract the drug. The samples were then centrifuged and the supernatant was assayed for DOX concentration spectrofluorimetrically (Ex:470 nm, Em:590 nm). The calibration curve was prepared using serial dilutions of Doxil the tissue and sera extracts of the control mice. […]"}, "[4]": {"tested_on": "TUBO breast carcinoma tumor", "assay": "Chemotherapy study in tumor-bearing mice", "details": "for CR (complete regression) / TFS (tumor free survivor): number of animals of n = 4-5; for TGD (Tumor growth delay): versus dextrose 5% control", "procedure": "Initially, on day 0, female BALB/c mice aged 4-6 weeks were given subcutaneous injections of TUBO tumor cells (5×10^5 cells per mouse) in the right flank. On day 11, post-tumoring mice with palpable tumor received 0.2 mL via a single tail vein injection of either dextrose 5% solution as negative control or doxorubicin encapsulated in liposomes (15 mg/kg). Mice were weighed and tumor sizes were monitored during the experimental period. The tumor volume was estimated by measuring three orthogonal diameters (a, b, and c) with calipers; the volume was calculated as (a×b×c)×0.5 mm^3. Tumors that were just palpable were defined as 1 mm^3. To survival study, the mice were monitored for up to 120 days post-tumoring or until one of the following conditions for euthanasia was met: (1) their body weight dropped below 20% of their initial mass; (2) their tumor was greater than 2.0 cm across in any dimension; (3) they became lethargic or sick and unable to feed; or (4) they were found dead. The time to reach the endpoint (TTE) for each mouse was calculated from the equation of the line obtained by exponential regression of the tumor growth curve. Subsequently, the percent of tumor growth delay (% TGD) were calculated based on the difference between the mean TTE of treatment group (T) and theme an TTE of the control group (C) (% TGD=[(T−C)/C]×100). […] In a partial regression response, the tumor volume is less than or equal to 50% of its day 1 volume for three consecutive measurements during the course of the study, and greater than or equal to 13.5 mm^3 for one or more of these three measurements. In a complete regression response, the tumor volume is less than 13.5 mm^3 for three consecutive measurements during the course of the study. An animal with a complete regression response at the end of the study was additionally classified as a tumor-free survivor.\nThe investigation to get the above-mentioned results took place in female BALB/c mice earing TUBO breast carcinoma tumor after administration of a single dose of 15 mg/kg liposome loaded by doxorubicin (DOX) or dextrose 5% on day 11 after tumor inoculation."}, "[5]": {"tested_on": "MDA-MB-231 (HER2-Low expressing cells)", "assay": "MTT cytotoxicity study", "type": "cell-based", "details": "then 48 hours, mean ± SD, n = 3", "protocol": "as §1, §2"}, "[6]": {"details": "Table 3B (719W), liposomes 15 mg/kg, DOX 10 mg/kg"}}, "note": "Like-named read-outs stand apart in the source and are kept apart here.", "data": [{"compound": "COc1cccc2c1C(=O)c1c(O)c3c(c(O)c1C2=O)C[C@@](O)(C(=O)CO)C[C@@H]3O[C@H]1C[C@H](N)[C@H](O)[C@H](C)O1", "note": "[DOX, doxorubicin]", "values": [{"measurement": "IC50", "setting": "[1]; Table 2A (420W), 3 hours incubation, read-out: IC50 SKBR3 3 hours", "value": "0.62 ± 0.02", "unit": "µM"}, {"measurement": "IC50", "setting": "[1]; Table 2A (420W), 6 hours incubation, read-out: IC50 SKBR3 6 hours", "value": "0.39 ± 0.05", "unit": "µM"}, {"measurement": "IC50", "setting": "[1]; Table 2B (719W), 3 h incubation, read-out: IC50 SKBR3 3 h", "value": "0.56 ± 0.02", "unit": "µM"}, {"measurement": "IC50", "setting": "[1]; Table 2B (719W), 6 h incubation, read-out: IC50 SKBR3 6 h", "value": "0.24 ± 0.01", "unit": "µM"}, {"measurement": "IC50", "setting": "[2]; Table 2A (420W), 3 hours incubation, read-out: IC50 TUBO 3 hours", "value": "0.15 ± 0.07", "unit": "µM"}, {"measurement": "IC50", "setting": "[2]; Table 2A (420W), 6 hours incubation, read-out: IC50 TUBO 6 hours", "value": "0.09 ± 0.01", "unit": "µM"}, {"measurement": "IC50", "setting": "[2]; Table 2B (719W), 3 h incubation, read-out: IC50 TUBO 3 h", "value": "0.15 ± 0.01", "unit": "µM"}, {"measurement": "IC50", "setting": "[2]; Table 2B (719W), 6 h incubation, read-out: IC50 TUBO 6 h", "value": "0.09 ± 0.03", "unit": "µM"}, {"measurement": "plasma concentration of DOX after intravenous injection", "setting": "[3]", "value": "below the detection limit"}, {"measurement": "CR (complete regression)", "setting": "[4]; Table 3A (420W)", "value": 0}, {"measurement": "TFS (tumor free survivor)", "setting": "[4]; Table 3A (420W)", "value": 0}, {"measurement": "TTE (time to reach the end point)", "setting": "[4]; Table 3A (420W), single i.v. dose on day 11, monitored up to 120 days", "value": 70.4, "unit": "days"}, {"measurement": "MST (Median survival Time)", "setting": "[4]; Table 3A (420W), single i.v. dose on day 11 after tumor inoculation, monitored up to 120 days", "value": 69.2, "unit": "days"}, {"measurement": "TGD (Tumor growth delay)", "setting": "[4]; Table 3A (420W)", "value": 18, "unit": "%"}, {"measurement": "TTE (time to reach the end point)", "setting": "[4]; [6]", "value": 70.4, "unit": "days"}, {"measurement": "CR (complete regression)", "setting": "[4]; [6]", "value": 0}, {"measurement": "TFS (tumor free survivor)", "setting": "[4]; [6]", "value": 0}, {"measurement": "MST (Median survival Time)", "setting": "[4]; Table 3B (719W), single i.v. dose, liposomes 15 mg/kg, DOX 10 mg/kg, up to 120 days", "value": 69.2, "unit": "days"}, {"measurement": "TGD (Tumor growth delay)", "setting": "[4]; [6]", "value": 18, "unit": "%"}, {"measurement": "IC50", "setting": "[5]; Table 2A (420W), 3 hours incubation, read-out: IC50 MDA-MB-231 3 hours", "value": "0.6 ± 0.05", "unit": "µM"}, {"measurement": "IC50", "setting": "[5]; Table 2A (420W), 6 hours incubation, read-out: IC50 MDA-MB-231 6 hours", "value": "0.26 ± 0.01", "unit": "µM"}, {"measurement": "IC50", "setting": "[5]; Table 2B (719W), 3 h incubation, read-out: IC50 MDA-MB-231 3 h", "value": "0.6 ± 0.09", "unit": "µM"}, {"measurement": "IC50", "setting": "[5]; Table 2B (719W), 6 h incubation, read-out: IC50 MDA-MB-231 6 h", "value": "0.26 ± 0.04", "unit": "µM"}]}]}
